The results in this text go back to patent US20130281399A1, “TREATMENT OF DISEASES BY EPIGENETIC REGULATION” (RVX Therapeutics Inc., priority 2012, published 2013).

This test addresses T1, Brd4 bromodomain 1 (Homo sapiens, UniProt O60885).
T1 construct: made in house; host or cells: E. coli BL21(DE3)
Nature of the test: Inhibition of binding of tetra-acetylated histone H4 to Brd4 bromodomain 1 (TR-FRET). As to conditions: His-tagged Brd4 bromodomain 1 200 nM, tetra-acetylated histone H4 peptide 25-50 nM, 2 hours room temperature. As for the experimental part:
Proteins were cloned and overexpressed with a N-terminal 6×His tag, then purified by nickel affinity followed by size exclusion chromatography. Briefly, E. coli BL21(DE3) cells were transformed with a recombinant expression vector encoding N-terminally Nickel affinity tagged bromodomains from Brd2, Brd3, Brd4. Cell cultures were incubated at 37° C. with shaking to the appropriate density and induced overnight with IPTG. The supernatant of lysed cells was loaded onto Ni-IDA column for purification. Eluted protein was pooled, concentrated and further purified by size exclusion chromatography. Fractions representing monomeric protein were pooled, concentrated, aliquoted, and frozen at −80° C. for use in subsequent experiments.
For inhibition assays, serially diluted test compound was added to these reactions in a 0.2% final concentration of DMSO. Final buffer concentrations were 30 mM HEPES pH 7.4, 30 mM NaCl, 0.3 mM CHAPS, 20 mM phosphate pH 7.0, 320 mM KF, 0.08% BSA). […] The binding inhibitory activity was shown by a decrease in 665 nm fluorescence relative to 620 nm. IC50 values were determined from a dose response curve.

On to `COc1cc(OC)c2c(=O)[nH]c(-c3ccc(N4CCN(CCO)CC4)cc3)nc2c1` [Example 1, 2-(4-(4-(2-hydroxyethyl)piperazin-1-yl)phenyl)-5,7-dimethoxyquinazolin-4(3H)-one], for which the “FRET activity (<50 uM)” value is “Active”. Then `CCCCN1CCN(c2ccc(-c3nc4cc(OC)cc(OC)c4c(=O)[nH]3)cc2)CC1` [Example 2, 2-(4-(4-butylpiperazin-1-yl)phenyl)-5,7-dimethoxyquinazolin-4(3H)-one], with “Active”; and `COc1cc(OC)c2c(=O)[nH]c(-c3ccc(C4CCN(C(C)=O)CC4)cc3)nc2c1` [Example 3, 2-(4-(1-acetylpiperidin-4-yl)phenyl)-5,7-dimethoxyquinazolin-4(3H)-one], with “Active”; and `COc1cc(OC)c2c(=O)[nH]c(-c3ccc(N4CCC(NCC5CC5)C4)cc3)nc2c1` (stereo not drawn) [Example 4, 2-(4-(3-(cyclopropylmethylamino)pyrrolidin-1-yl)phenyl)-5,7-dimethoxyquinazolin-4(3H)-one], with “Active”.

`COc1cc(OC)c2c(=O)[nH]c(-c3cc(C)c(OCCC4CN(C(C)=O)C4)c(C)c3)nc2c1` [Example 5, 2-(4-(2-(1-acetylazetidin-3-yl)ethoxy)-3,5-dimethylphenyl)-5,7-dimethoxyquinazolin-4(3H)-one]: the “FRET activity (<50 uM)” value is listed as “Active”. As to `COc1cc(OCCOC(C)C)c2c(=O)[nH]c(-c3cc(C)nc(C)c3)nc2c1` [Example 6, 2-(2,6-dimethylpyridin-4-yl)-5-(2-isopropoxyethoxy)-7-methoxyquinazolin-4(3H)-one], the “FRET activity (<50 uM)” value was “Active”. Then `COc1cc(OC)c2c(=O)[nH]c(-c3ccc(N4C[C@@H](C)N(C(C)=O)[C@@H](C)C4)cc3)nc2n1` [Example 7, 2-(4-((3R,5S)-4-Acetyl-3,5-dimethylpiperazin-1-yl)phenyl)-5,7-dimethoxypyrido[2,3-d]pyrimidin-4(3H)-one], with “Active”; and `COc1cc(OC)c2c(=O)[nH]c(-c3ccc(N4CCN(C(C)=O)CC4)cc3)nc2c1` [Example 11, 2-(4-(4-Acetylpiperazin-1-yl)phenyl)-5,7-dimethoxyquinazolin-4(3H)-one], with “Active”; and `COc1cc(OC)c2c(=O)[nH]c(-c3ccc(N4CCNCC4)cc3)nc2c1` [Example 12, 5,7-Dimethoxy-2-(4-(piperazin-1-yl)phenyl)quinazolin-4(3H)-one], with “Active”. Then `COc1cc(OC)c2c(=O)[nH]c(-c3ccc(N4CCC(NC(C)=O)CC4)cc3)nc2c1` [Example 13, N-(1-(4-(5,7-Dimethoxy-4-oxo-3,4-dihydroquinazolin-2-yl)phenyl)piperidin-4-yl)acetamide], with “Active”; and `COc1cc(OC)c2c(=O)[nH]c(-c3ccc(N4CCC(NS(C)(=O)=O)CC4)cc3)nc2c1` [Example 14, N-(1-(4-(5,7-Dimethoxy-4-oxo-3,4-dihydroquinazolin-2-yl)phenyl)piperidin-4-yl)methanesulfonamide], with “Active”; and `COc1cc(OC)c2c(=O)[nH]c(-c3ccc(N4CCC(NC(=O)N(C)C)CC4)cc3)nc2c1` [Example 15, 3-(1-(4-(5,7-Dimethoxy-4-oxo-3,4-dihydroquinazolin-2-yl)phenyl)piperidin-4-yl)-1,1-dimethylurea], with “Active”. Then `CCCCCC(=O)N1CCN(c2ccc(-c3nc4cc(OC)cc(OC)c4c(=O)[nH]3)cc2)CC1` [Example 16, 2-(4-(4-Hexanoylpiperazin-1-yl)phenyl)-5,7-dimethoxyquinazolin-4(3H)-one], with “Inactive”; and `COc1cc(OC)c2c(=O)[nH]c(-c3ccc(N4CCN(C(=O)C(C)C)CC4)cc3)nc2c1` [Example 17, 2-(4-(4-Isobutyrylpiperazin-1-yl)phenyl)-5,7-dimethoxyquinazolin-4(3H)-one], with “Active”. Turning to `COc1cc(OC)c2c(=O)[nH]c(-c3ccc(N4CCN(C(=O)c5ccccc5)CC4)cc3)nc2c1` [Example 18, 2-(4-(4-Benzoylpiperazin-1-yl)phenyl)-5,7-dimethoxyquinazolin-4(3H)-one], the “FRET activity (<50 uM)” value was “Inactive”. Then `COc1cc(OC)c2c(=O)[nH]c(-c3ccc(N4CCN(C(=O)c5ccc(F)cc5)CC4)cc3)nc2c1` [Example 19, 2-(4-(4-(4-Fluorobenzoyl)piperazin-1-yl)phenyl)-5,7-dimethoxyquinazolin-4(3H)-one], with “Inactive”; and `COc1cc(OC)c2c(=O)[nH]c(-c3ccc(N4CCC(NC(=O)c5ccccc5)CC4)cc3)nc2c1` [Example 20, N-(1-(4-(5,7-Dimethoxy-4-oxo-3,4-dihydroquinazolin-2-yl)phenyl)piperidin-4-yl)benzamide], with “Inactive”. The result for `COc1cc(OC)c2c(=O)[nH]c(-c3ccc(N4CCN(C(=O)c5ccccn5)CC4)cc3)nc2c1` [Example 21, 5,7-Dimethoxy-2-(4-(4-picolinoylpiperazin-1-yl)phenyl)quinazolin-4(3H)-one] reads “Active”; that for `COc1cc(OC)c2c(=O)[nH]c(-c3ccc(N4CCN(C(=O)c5cccnc5)CC4)cc3)nc2c1` [Example 22, 5,7-Dimethoxy-2-(4-(4-nicotinoylpiperazin-1-yl)phenyl)quinazolin-4(3H)-one], “Active”; that for `COc1cc(OC)c2c(=O)[nH]c(-c3ccc(N4CCN(C(=O)c5ccncc5)CC4)cc3)nc2c1` [Example 23, 2-(4-(4-Isonicotinoylpiperazin-1-yl)phenyl)-5,7-dimethoxyquinazolin-4(3H)-one], “Active”. Then `COc1cc(OC)c2c(=O)[nH]c(-c3ccc(N4CCN(C(=O)c5cccs5)CC4)cc3)nc2c1` [Example 24, 5,7-Dimethoxy-2-(4-(4-(thiophene-2-carbonyl)piperazin-1-yl)phenyl)quinazolin-4(3H)-one], with “Active”.

`COc1cc(OC)c2c(=O)[nH]c(-c3ccc(N4CCN(C(=O)c5cnn(C)c5Cl)CC4)cc3)nc2c1` [Example 25, 2-(4-(4-(5-Chloro-1-methyl-1H-pyrazole-4-carbonyl)piperazin-1-yl)phenyl)-5,7-dimethoxyquinazolin-4(3H)-one]: the “FRET activity (<50 uM)” value is on record as “Inactive”. Then `COc1cc(OC)c2c(=O)[nH]c(-c3ccc(N4CCN(C(=O)CC(F)(F)F)CC4)cc3)nc2c1` [Example 26, 5,7-Dimethoxy-2-(4-(4-(3,3,3-trifluoropropanoyl)piperazin-1-yl)phenyl)quinazolin-4(3H)-one], with “Active”; and `COc1cc(OC)c2c(=O)[nH]c(-c3ccc(N4CCN(C(=O)c5cc(Cl)sc5Cl)CC4)cc3)nc2c1` [Example 27, 2-(4-(4-(2,5-Dichlorothiophene-3-carbonyl)piperazin-1-yl)phenyl)-5,7-dimethoxyquinazolin-4(3H)-one], with “Active”. Then `COc1cc(OC)c2c(=O)[nH]c(-c3ccc(N4CCN(C(=O)C5CC5)CC4)cc3)nc2c1` [Example 28, 2-(4-(4-(Cyclopropanecarbonyl)piperazin-1-yl)phenyl)-5,7-dimethoxyquinazolin-4(3H)-one], with “Active”; and `COc1cc(OC)c2c(=O)[nH]c(-c3ccc(N4CCN(Cc5ccc(F)cc5)CC4)cc3)nc2c1` [Example 29, 2-(4-(4-(4-Fluorobenzyl)piperazin-1-yl)phenyl)-5,7-dimethoxyquinazolin-4(3H)-one], with “Inactive”.

Consider `COc1cc(OC)c2c(=O)[nH]c(-c3ccc(N4CCN(Cc5ccccc5)CC4)cc3)nc2c1` [Example 30, 2-(4-(4-Benzylpiperazin-1-yl)phenyl)-5,7-dimethoxyquinazolin-4(3H)-one], for which the “FRET activity (<50 uM)” value was “Inactive”.

Consider `O=c1[nH]c(-c2ccc(N3CCN(CC(F)(F)F)CC3)cc2)nc2ccccc12` [Example 31, 2-(4-(4-(2,2,2-Trifluoroethyl)piperazin-1-yl)phenyl)quinazolin-4(3H)-one], for which the “FRET activity (<50 uM)” value is given as “Inactive”. In the case of `COc1cc(OC)c2c(=O)[nH]c(-c3ccc(N4CCCN(C(C)=O)CC4)cc3)nc2c1` [Example 32, 2-(4-(4-Acetyl-1,4-diazepan-1-yl)phenyl)-5,7-dimethoxyquinazolin-4(3H)-one], the “FRET activity (<50 uM)” value is “Active”. For `COc1cc(OC)c2c(=O)[nH]c(-c3ccc(N4CCCNCC4)cc3)nc2c1` [Example 33, 2-(4-(1,4-Diazepan-1-yl)phenyl)-5,7-dimethoxyquinazolin-4(3H)-one], the “FRET activity (<50 uM)” value is listed as “Active”. Then `COc1cc(OC)c2c(=O)[nH]c(-c3ccc(N4CCCN(C)CC4)cc3)nc2c1` [Example 34, 5,7-Dimethoxy-2-(4-(4-methyl-1,4-diazepan-1-yl)phenyl)quinazolin-4(3H)-one], with “Active”; and `CCN(C(C)=O)C1CCN(c2ccc(-c3nc4cc(OC)cc(OC)c4c(=O)[nH]3)cc2)CC1` [Example 35, N-(1-(4-(5,7-Dimethoxy-4-oxo-3,4-dihydroquinazolin-2-yl)phenyl)piperidin-4-yl)-N-ethylacetamide], with “Active”; and `COc1cc(OC)c2c(=O)[nH]c(-c3ccc(N4C[C@@H](C)N(C(C)=O)[C@@H](C)C4)cc3)nc2c1` [Example 36, 2-(4-((3R,5S)-4-Acetyl-3,5-dimethylpiperazin-1-yl)phenyl)-5,7-dimethoxyquinazolin-4(3H)-one], with “Active”.
